Reference: patent US20240270821A1, “GIP/GLP1/GCG TRI-RECEPTOR AGONISTS AND USES THEREOF” (priority 2023, published 2024)
Like-named read-outs stand apart in the source and are kept apart here. Marks after values point to notes of the source that are not given here. Starred links: 1 amine or outer side, 2 acyl side, 3 side chain; linkers in the order of their positions; H or OH if unused. Non-standard residues stand in square brackets, D forms with d. Groups on a side chain read outwards from the residue. *: point of attachment. C20 diacid = O=C(O)CCCCCCCCCCCCCCCCCCC(=O)*; C18 diacid = O=C(O)CCCCCCCCCCCCCCCCC(=O)*; αMePhe(2-F) = C[C@](N)(Cc1ccccc1F)C(=O)O; γGlu = O=C(O)[C@H](CCC(=O)[*:2])N[*:1]; NMeY = CN[C@@H](Cc1ccc(O)cc1)C(=O)O; αMeF = C[C@](N)(Cc1ccccc1)C(=O)O; αMeL = CC(C)C[C@](C)(N)C(=O)O; AEEA = NCCOCCOCC(=O)O; Aib = CC(C)(N)C(=O)O

What was measured:
hGLP-1R [1] = molecular target: T1, hGLP-1R (Homo sapiens, UniProt P43220); experiment: Functional cAMP activation in the presence of 0.1% casein (no HSA); format: cell-based; conditions: read-out: Relative cAMP EC50, hGLP-1R;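 note: intracellular cAMP rise after 30 min at 37 °C read by HTRF, normalized between buffer only (0%) and maximal control ligand (100%), four-parameter variable-slope fit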
Target sequence in this assay (P43220 24-463): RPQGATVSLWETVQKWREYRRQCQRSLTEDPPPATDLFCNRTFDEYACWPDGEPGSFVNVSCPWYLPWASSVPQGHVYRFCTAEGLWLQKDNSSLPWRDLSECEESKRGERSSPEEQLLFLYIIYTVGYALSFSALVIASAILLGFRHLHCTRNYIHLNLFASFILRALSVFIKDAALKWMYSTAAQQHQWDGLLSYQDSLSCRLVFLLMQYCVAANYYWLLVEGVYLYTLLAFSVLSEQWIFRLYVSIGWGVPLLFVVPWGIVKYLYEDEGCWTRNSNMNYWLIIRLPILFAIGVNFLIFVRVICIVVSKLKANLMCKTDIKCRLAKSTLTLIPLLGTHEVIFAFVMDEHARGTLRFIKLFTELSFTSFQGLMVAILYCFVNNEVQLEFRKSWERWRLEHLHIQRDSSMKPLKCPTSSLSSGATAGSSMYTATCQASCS

human GcgR = human GcgR (Homo sapiens, UniProt P47871); experiment: Functional cAMP activity in the presence of 1% HSA; format: cell-based; conditions: read-out: cAMP Rel EC50, hGcgR
human GcgR, sequence (P47871 26-477): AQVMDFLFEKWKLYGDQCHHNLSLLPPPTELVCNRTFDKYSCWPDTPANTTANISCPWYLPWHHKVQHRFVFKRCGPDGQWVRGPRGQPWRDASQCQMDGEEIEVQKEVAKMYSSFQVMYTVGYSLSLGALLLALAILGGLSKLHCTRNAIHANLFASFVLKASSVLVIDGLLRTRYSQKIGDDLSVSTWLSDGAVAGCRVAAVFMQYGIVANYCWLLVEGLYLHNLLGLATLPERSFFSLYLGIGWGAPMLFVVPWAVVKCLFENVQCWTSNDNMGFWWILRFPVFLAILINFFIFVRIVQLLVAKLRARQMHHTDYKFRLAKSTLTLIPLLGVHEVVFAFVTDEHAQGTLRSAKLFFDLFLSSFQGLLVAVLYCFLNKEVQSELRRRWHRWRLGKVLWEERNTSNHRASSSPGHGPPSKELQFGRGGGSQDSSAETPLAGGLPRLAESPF

hGIPR [2] = molecular target: T2, hGIPR (Homo sapiens, UniProt P48546); experiment: Functional cAMP activity in the presence of 1% HSA; format: cell-based; conditions: read-out: cAMP Rel EC50, hGIPR
T2 sequence (P48546 22-466): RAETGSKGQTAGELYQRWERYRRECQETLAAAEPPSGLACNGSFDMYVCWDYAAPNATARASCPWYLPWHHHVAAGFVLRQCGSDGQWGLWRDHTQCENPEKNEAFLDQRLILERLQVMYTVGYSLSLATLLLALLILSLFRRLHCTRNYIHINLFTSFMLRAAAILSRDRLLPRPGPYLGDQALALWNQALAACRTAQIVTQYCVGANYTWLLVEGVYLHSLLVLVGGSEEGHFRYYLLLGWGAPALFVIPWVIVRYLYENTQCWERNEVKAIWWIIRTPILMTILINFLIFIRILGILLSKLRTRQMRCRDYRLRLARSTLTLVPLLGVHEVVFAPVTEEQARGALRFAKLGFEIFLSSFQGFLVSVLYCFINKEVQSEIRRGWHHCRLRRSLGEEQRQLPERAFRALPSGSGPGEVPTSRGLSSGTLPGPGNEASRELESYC

hGIPR [3] = molecular target: T2, hGIPR; experiment: Functional cAMP activation in the presence of 0.1% casein (no HSA); format: cell-based; conditions: read-out: Relative cAMP EC50, hGIPR;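 note: intracellular cAMP rise after 30 min at 37 °C read by HTRF against a standard curve, scaled between buffer alone (0%) and top control ligand concentration (100%), four-parameter fit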
hGLP-1R [4] = molecular target: T1, hGLP-1R; experiment: GLP-1R CHO cell β-arrestin recruitment assay; format: cell-based; parameters: host or cells: CHO-K1 (PathHunter, assay-ready frozen cells); conditions: for EC50: CHO-K1 PathHunter, β-arrestin-2, 0.1% casein, read-out: hGLP1R β-arrestin Rel EC50; for % Stimulation Max: normalized to GLP-1(7-36) as maximum control;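 for all read-outs here: luminescence read after 90 min peptide exposure at 37 °C and a further 60 min with detection reagent at room temperature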
Target sequence in this assay (P43220 24-463): as the sequence (P43220 24-463) above
Target sequence in this assay (P32121 whole entry partner): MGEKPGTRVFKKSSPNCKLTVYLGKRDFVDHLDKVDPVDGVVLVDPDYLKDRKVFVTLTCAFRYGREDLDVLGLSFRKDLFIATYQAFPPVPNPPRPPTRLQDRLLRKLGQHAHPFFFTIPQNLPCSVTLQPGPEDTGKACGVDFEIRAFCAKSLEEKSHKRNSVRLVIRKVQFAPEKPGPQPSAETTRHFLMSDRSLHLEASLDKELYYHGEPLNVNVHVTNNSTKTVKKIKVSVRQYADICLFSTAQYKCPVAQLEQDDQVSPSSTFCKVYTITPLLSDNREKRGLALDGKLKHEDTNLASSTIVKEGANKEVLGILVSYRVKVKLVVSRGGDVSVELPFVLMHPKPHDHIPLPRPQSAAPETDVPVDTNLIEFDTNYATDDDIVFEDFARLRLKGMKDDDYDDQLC

hGLP-1R [5] = molecular target: T1, hGLP-1R; experiment: Functional cAMP activity in the presence of 1% HSA; format: cell-based; conditions: read-out: cAMP Rel EC50, hGLP-1R
Target sequence in this assay (P43220 24-463): as the sequence (P43220 24-463) above

hGcgR = hGcgR (Homo sapiens, UniProt P47871); experiment: Functional cAMP activation in the presence of 0.1% casein (no HSA); format: cell-based; conditions: read-out: Relative cAMP EC50, hGcgR;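 note: intracellular cAMP rise after 30 min at 37 °C, read by HTRF against a cAMP standard curve, scaled from buffer only (0%) to maximal control ligand response (100%)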
hGcgR, sequence (P47871 26-477): as the sequence (P47871 26-477) above

human GLP1-R = human GLP1-R (Homo sapiens, UniProt P43220); experiment: GLP1-R internalization assay in HEK293 cells; format: cell-based; conditions: for EC50: HEK293 cells expressing SNAP-GLP-1R, read-out: GLP1R Internalization EC50
human GLP1-R, sequence (P43220 24-463): as the sequence (P43220 24-463) above

[6] = Body weight in diet-induced obese C57BL/6 mice; format: in vivo; conditions: percent of starting weight, DIO mice, mean ± SEM n=5
Protocol: To investigate the effect of the polypeptides as described herein on weight loss, exemplary polypeptides are dosed to C57BL/6 diet-induced obese (DIO) mice. Specifically, DIO male C57BL/6 mice (Taconic, Germantown, NY) maintained on a calorie-rich diet are used in the following studies. Mice are individually housed in a temperature-controlled (24° C.) facility with 12-hour light/dark cycle (lights on 22:00) and free access to food (TD95217) and water. After a minimum of 2 weeks acclimation to the facility, the mice are randomized according to their body weight, so each experimental group of animals would have similar starting body weight. The body weights range from 41 to 50 g. All groups contain 5 mice. […] Treatments are administered by subcutaneous (SC) injection (10 mL/kg) to ad libitum fed DIO mice 30 to 90 minutes prior to the onset of the dark cycle either once daily (QD) or once every 3 days (Q3D) for 9-16 days. Body weight and food intake are measured daily throughout the study. Body weight is presented as percent of the starting weight. […] Data are presented as mean±SEM of 5 animals per group in Table 7 below. Statistical analysis is performed using repeated measures ANOVA, followed by Dunnett's method comparison test.

[7] = in the presence of 0.1% casein (no HSA), geometric mean
[8] = normalized to maximum concentration of GLP-1 (100%)

Molecule | EC50 (hGLP-1R [1]; [7]) [nM] | EC50 (human GcgR) [nM] | EC50 (hGIPR [2]) [nM] | EC50 (hGIPR [3]; [7]) [nM] | EC50 (hGLP-1R [4]) [nM] | % Stimulation Max (hGLP-1R [4]) [%] | EC50 (hGLP-1R [5]) [nM] | EC50 (hGcgR; [7]) [nM] | EC50 (human GLP1-R) [nM] | Internalization % TOP (human GLP1-R; [8]) [%] | EC50 (hGLP-1R [1]) [nM] | EC50 (hGIPR [3]) [nM] | EC50 (hGcgR) [nM] | Internalization % TOP (human GLP1-R) [%] | Body weight (%) ([6]; 10 nmol/kg SC QD, 15 days) | Body weight (%) ([6]; 10 nmol/kg SC Q3D, 14 days)
Tirzepatide [reference compound] | – | – | – | – | – | 10.5 | – | – | – | – | – | – | – | 60.3 | – | –
H-Y[Aib]QGTFTSDYSI[αMeL]LDKIAAK([AEEA-AEEA-γGlu-C20 diacid])QFVQWLIE[Aib]GPSSGEPPPSEG-NH2 [Example 323] | 1.56 | 1440 | 37.7 | 0.232 | 10.8 | 44 | 293 | 6.04 | 28.2 | 84.8 | – | – | – | – | – | –
H-Y[Aib]QGT[αMeF]TSDYSILLDKIAAK([AEEA-AEEA-γGlu-C18 diacid])NFIEYLVEGGPSSGEPPPSEG-NH2 [Example 307] | 0.836 | 1880 | 65.3 | 0.446 | 9.86 | 70.8 | 209 | 1.68 | – | – | – | – | – | – | – | –
H-Y[Aib]QGT[αMePhe(2-F)]TSDYSILLDKIAQK([AEEA-γGlu-C20 diacid])AFIEYLLEGGPSSGEPPPSEG-NH2 [Example 293] | 0.994 | 1740 | 9.63 | 0.0587 | 11.9 | 54.6 | 295 | 4.01 | – | – | – | – | – | – | – | –
H-Y[Aib]QGTFTSDFSK[αMeL]LDKK([AEEA-γGlu-C20 diacid])AQ[Aib]AFIEYLLAGGPSSGEPPPSSE-NH2 [Example 3] | 1.67 | 1590 | 48.1 | 0.217 | > 10000 | 16.5 | 546 | 3.8 | 49.2 | 69.7 | – | – | – | – | – | –
H-Y[Aib]QGTFTSDFSK[αMeL]LDKK([AEEA-AEEA-γGlu-C20 diacid])AQ[Aib]AFIEYLLAGGPSSGEPPPSSE-NH2 [Example 5] | 2.37 | 2670 | 32.5 | 0.177 | > 10000 | 18.4 | 675 | 7.4 | 53.4 | 75 | – | – | – | – | – | –
H-Y[Aib]QGTFTSDYSI[αMeL]LDKQAAK([AEEA-AEEA-γGlu-C20 diacid])AFVEWLLAGGPSSGEPPPSEG-NH2 [Example 305] | 1.48 | 1500 | 92.4 | 1 | 23.3 | 58.3 | 415 | 6.73 | – | – | – | – | – | – | – | –
H-Y[Aib]QGTFTSDFSK[αMeL]LDKK([AEEA-γGlu-C20 diacid])AQ[Aib]AFIEYLLAGAPSSGEPPPSEG-NH2 [Example 24] | – | – | – | – | – | – | – | – | – | – | – | – | – | – | – | 86.10 +/− 1.98**** %

More lines, main results first:

EC50 (hGLP-1R [1]; [7]) [nM] | EC50 (human GcgR) [nM] | EC50 (hGIPR [2]) [nM] | EC50 (hGIPR [3]; [7]) [nM] | EC50 (hGLP-1R [4]) [nM] | % Stimulation Max (hGLP-1R [4]) [%] | EC50 (hGLP-1R [5]) [nM] | EC50 (hGcgR; [7]) [nM] | EC50 (human GLP1-R) [nM] | Internalization % TOP (human GLP1-R; [8]) [%] | EC50 (hGLP-1R [1]) [nM] | EC50 (hGIPR [3]) [nM] | EC50 (hGcgR) [nM] | Molecule | Internalization % TOP (human GLP1-R) [%] | Body weight (%) ([6]; 10 nmol/kg SC QD, 15 days) | Body weight (%) ([6]; 10 nmol/kg SC Q3D, 14 days)
0.808 | 3910 | 424 | 0.32 | 6.72 | 47.2 | 251 | 9.28 | – | – | – | – | – | H-Y[Aib]QGT[αMePhe(2-F)]TSDYSKLLDKQAQK([AEEA-γGlu-C20 diacid])QFIEYLIEGGPSSGEPPPSEG-NH2 [Example 309] | – | – | –
3.36 | 2500 | 26.1 | 0.113 | 19.2 | 39.6 | 1080 | 2.08 | – | – | – | – | – | H-Y[Aib]QGT[αMePhe(2-F)]TSDYSKILDKIAQK([AEEA-γGlu-C20 diacid])AFIEYLLEGGPSSGEPPPSEG-NH2 [Example 311] | – | – | –
0.641 | 1500 | 81.8 | 0.722 | 13.2 | 59.1 | 82.4 | 6.73 | – | – | – | – | – | H-[NMeY][Aib]QGT[αMeF]TSDYSILLDKQAAK([AEEA-AEEA-γGlu-C20 diacid])AFVQWLIAGGPSSGEPPPSEG-NH2 [Example 301] | – | – | –
0.277 | 1570 | 41.3 | 0.138 | 3.29 | 86.4 | 70.9 | 1.04 | – | – | – | – | – | H-H[Aib]QGT[αMePhe(2-F)]TSDYSILLDKK([AEEA-γGlu-C20 diacid])AA[Aib]AFIEYLIEAGPSSGEPPPSEG-NH2 [Example 298] | – | – | –
0.621 | 1370 | 91.8 | 0.7 | 11.2 | 56.6 | 73.6 | 4.47 | – | – | – | – | – | H-[NMeY][Aib]QGT[αMeF]TSDYSILLDKQAAK([AEEA-AEEA-γGlu-C20 diacid])AFVQWLIEGGPSSGEPPPSEG-NH2 [Example 302] | – | – | –
– | 240 | 0.846 | – | – | – | – | – | – | – | 0.235 | 0.0118 | 2.44 | CC[C@H](C)[C@H](NC(=O)[C@H](CC(C)C)NC(=O)[C@](C)(Cc1ccc(O)cc1)NC(=O)[C@@H](CCC(=O)O)NC(=O)[C@@H](NC(=O)[C@H](Cc1ccccc1)NC(=O)[C@H](CC(N)=O)NC(=O)C(C)(C)NC(=O)[C@H](CCC(N)=O)NC(=O)[C@H](C)NC(=O)[C@H](CCCCNC(=O)CC[C@H](NC(=O)CC[C@H](NC(=O)CCCCCCCCCCCCCCCCC(=O)O)C(=O)O)C(=O)O)NC(=O)[C@H](CCCN)NC(=O)[C@H](CC(=O)O)NC(=O)[C@H](CC(C)C)NC(=O)[C@](C)(CC(C)C)NC(=O)[C@@H](NC(=O)[C@](C)(CO)NC(=O)[C@H](Cc1ccncc1)NC(=O)[C@H](CC(=O)O)NC(=O)[C@H](CO)NC(=O)[C@@H](NC(=O)[C@](C)(Cc1ccccc1F)NC(=O)[C@@H](NC(=O)CNC(=O)[C@H](CCC(N)=O)NC(=O)C(C)(C)NC(=O)[C@@H](N)Cc1ccc(O)cc1)[C@@H](C)O)[C@@H](C)O)[C@@H](C)CC)[C@@H](C)CC)C(=O)N[C@@H](CCC(=O)O)C(=O)NCC(=O)NCC(=O)N1CCC[C@H]1C(=O)N[C@@H](CO)C(=O)N[C@@H](CO)C(=O)NCC(=O)N[C@@H](CCC(=O)O)C(=O)N1CCC[C@H]1C(=O)N[C@@H](CCC(=O)O)C(=O)N1CCC[C@H]1C(=O)N[C@@H](CCC(=O)O)C(N)=O [Example 452] | – | 74.13 ± 4.11 | –
